One block for each compound: values may come before it. Calls of active or inactive are those of the source. The rule behind the calls is not given here.
Key:
[1] = target: T1, von Hippel-Lindau disease tumor suppressor/Estrogen receptor (Homo sapiens, UniProt P03372+P40337); assay: PROTAC activity at VHL/ER-alpha in human MCF7 cells assessed as ERalpha degradation at 2 uM incubated for 1 hr by Western blot analysis relative to control; type: cell-based
Target sequence in this assay (P03372 whole entry, looked up): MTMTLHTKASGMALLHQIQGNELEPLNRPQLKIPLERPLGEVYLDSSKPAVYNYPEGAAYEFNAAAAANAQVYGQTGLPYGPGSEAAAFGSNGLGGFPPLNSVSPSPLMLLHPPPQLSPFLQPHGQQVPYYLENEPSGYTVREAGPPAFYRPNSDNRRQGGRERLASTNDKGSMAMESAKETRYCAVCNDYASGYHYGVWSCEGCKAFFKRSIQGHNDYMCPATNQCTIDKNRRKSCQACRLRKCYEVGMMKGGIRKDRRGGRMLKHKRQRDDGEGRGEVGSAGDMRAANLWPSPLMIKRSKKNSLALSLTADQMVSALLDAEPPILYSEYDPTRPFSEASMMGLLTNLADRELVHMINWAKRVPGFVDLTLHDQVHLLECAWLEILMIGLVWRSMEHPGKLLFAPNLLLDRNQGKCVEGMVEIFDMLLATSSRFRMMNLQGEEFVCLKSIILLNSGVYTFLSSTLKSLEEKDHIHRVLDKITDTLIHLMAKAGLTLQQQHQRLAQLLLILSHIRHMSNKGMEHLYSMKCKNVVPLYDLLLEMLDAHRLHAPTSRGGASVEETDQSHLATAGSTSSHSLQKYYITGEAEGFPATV
Target sequence in this assay (P40337 whole entry, looked up): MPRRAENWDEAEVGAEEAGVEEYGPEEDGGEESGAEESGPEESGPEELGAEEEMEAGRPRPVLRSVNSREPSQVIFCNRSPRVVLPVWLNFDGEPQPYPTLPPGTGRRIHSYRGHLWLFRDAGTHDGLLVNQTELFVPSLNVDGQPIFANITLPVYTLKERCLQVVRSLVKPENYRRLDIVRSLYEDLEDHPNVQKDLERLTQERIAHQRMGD

[2] = target: T1, von Hippel-Lindau disease tumor suppressor/Estrogen receptor; assay: PROTAC activity at VHL/ER-alpha in human MCF7 cells assessed as ERalpha degradation incubated for 12 hrs by Western blot analysis; type: cell-based
[3] = target: T1, von Hippel-Lindau disease tumor suppressor/Estrogen receptor; assay: PROTAC activity at VHL/ER-alpha in human MCF7 cells assessed as ERalpha degradation at 10 uM incubated for 4 hrs by Western blot analysis; type: cell-based
Target sequence in this assay (P03372 whole entry, looked up): as the sequence (P03372 whole entry, looked up) above
Target sequence in this assay (P40337 whole entry, looked up): as the sequence (P40337 whole entry, looked up) above

[4] = GSH reactivity of compound in water/acetonitrile solution assessed as release efficiency at 0.1 mM incubated for 48 hrs by HPLC analysis relative to control; type: physicochemical; settings: buffer, 100 µM
BT-474 [5] = assay: Antiproliferative activity against human BT-474 cells assessed as inhibition of cell growth at 10 uM incubated for 3 days by hemocytometer cell counting analysis; type: functional, cell-based; settings: time 3.0 day
[6] = target: T1, von Hippel-Lindau disease tumor suppressor/Estrogen receptor; assay: PROTAC activity at VHL/3 Flag-tagged ER-alpha in HBE cells assessed as ERalpha degradation at 0.5 to 10 uM incubated for 6 hr by western blot analysis; type: cell-based; settings: dose 0.5-10 µM
Target sequence in this assay (P03372 whole entry, looked up): as the sequence (P03372 whole entry, looked up) above
Target sequence in this assay (P40337 whole entry, looked up): as the sequence (P40337 whole entry, looked up) above

BT-474 [7] = assay: Antiproliferative activity against human GCLC knockdown BT-474 cells assessed as inhibition of cell growth at 10 uM incubated after 2 days by hemocytometer cell counting analysis; type: functional, cell-based; settings: time 2.0 day
[8] = target: T1, von Hippel-Lindau disease tumor suppressor/Estrogen receptor; assay: PROTAC activity at VHL/ER-alpha in human BT-474 cells assessed as ERalpha degradation by Western blot analysis; type: cell-based; settings: TDE = time-dependent effect
Target sequence in this assay (P03372 whole entry, looked up): as the sequence (P03372 whole entry, looked up) above
Target sequence in this assay (P40337 whole entry, looked up): as the sequence (P40337 whole entry, looked up) above

[9] = Stability of compound in PBS buffer pH 7.4 at 0.1 mM incubated upto 48 hrs by HPLC analysis; type: physicochemical; settings: pH 7.4, 48 h, 100 µM
[10] = target: T1, von Hippel-Lindau disease tumor suppressor/Estrogen receptor; assay: PROTAC activity at VHL/3 Flag-tagged ER-alpha in human A549 cells assessed as ERalpha degradation incubated for 12 hrs by Western blot analysis; type: cell-based; settings: dose 0.5-10 µM
Target sequence in this assay (P03372 whole entry, looked up): as the sequence (P03372 whole entry, looked up) above
Target sequence in this assay (P40337 whole entry, looked up): as the sequence (P40337 whole entry, looked up) above

[11] = target: T1, von Hippel-Lindau disease tumor suppressor/Estrogen receptor; assay: PROTAC activity at VHL/ER-alpha in human MCF7 cells assessed as ERalpha degradation at 0.5 uM incubated for 6 hrs by Western blot analysis relative to control; type: cell-based
Target sequence in this assay (P03372 whole entry, looked up): as the sequence (P03372 whole entry, looked up) above
Target sequence in this assay (P40337 whole entry, looked up): as the sequence (P40337 whole entry, looked up) above

[12] = target: T1, von Hippel-Lindau disease tumor suppressor/Estrogen receptor; assay: PROTAC activity at VHL/3 Flag-tagged ER-alpha in human NCI-H1299 cells assessed as ERalpha degradation incubated for 6 hrs by Western blot analysis; type: cell-based; settings: dose 0.5-10 µM
[13] = Stability of compound in mouse plasma at 0.1 mM incubated for 8 hrs by HPLC analysis; type: ADME, cell-free; settings: 100 µM
[14] = target: T1, von Hippel-Lindau disease tumor suppressor/Estrogen receptor; assay: PROTAC activity at VHL/ER-alpha in human MCF7 cells assessed as ERalpha degradation level at 10 uM pretreated with tamoxifen followed by compound addition and measured after 6 hrs by Western blot analysis; type: cell-based
[15] = target: T1, von Hippel-Lindau disease tumor suppressor/Estrogen receptor; assay: PROTAC activity at VHL/ER-alpha in human VHL knockdown MCF7 cells assessed as ERalpha degradation level at 10 uM incubated for 6 hrs by Western blot analysis; type: cell-based
[16] = target: T1, von Hippel-Lindau disease tumor suppressor/Estrogen receptor; assay: PROTAC activity at VHL/ER-alpha in human MCF7 cells assessed as ERalpha degradation level at 10 uM by Western blot analysis; type: cell-based; settings: time 3-6 hrs, TDE = time-dependent effect
[17] = target: T1, von Hippel-Lindau disease tumor suppressor/Estrogen receptor; assay: PROTAC activity at VHL/3 Flag-tagged ER-alpha in human NCI-H1299 cells assessed as ERalpha degradation incubated for 12 hrs by Western blot analysis; type: cell-based; settings: dose 0.5-10 µM
[18] = target: T1, von Hippel-Lindau disease tumor suppressor/Estrogen receptor; assay: PROTAC activity at VHL/ER-alpha in human MCF7 cells assessed as ERalpha degradation level at 10 uM pretreated with VHL-L followed by compound addition and measured after 6 hrs by Western blot analysis; type: cell-based
BT-474 [19] = assay: Antiproliferative activity against human SLC7A11 knockdown BT-474 cells assessed as inhibition of cell growth at 10 uM incubated after 2 days by hemocytometer cell counting analysis; type: functional, cell-based; settings: time 2.0 day
[20] = target: T1, von Hippel-Lindau disease tumor suppressor/Estrogen receptor; assay: PROTAC activity at VHL/ER-alpha in human MCF7 cells assessed as ERalpha degradation level at 10 uM incubated 3 to 6 hrs in the presence of NEM by Western blot analysis; type: cell-based; settings: time 3-6 hrs
MCF7 = assay: Antiproliferative activity against human MCF7 cells assessed as inhibition of cell growth at 10 uM incubated for 9 days by hemocytometer cell counting analysis; type: functional, cell-based; settings: time 9.0 day
[21] = target: T1, von Hippel-Lindau disease tumor suppressor/Estrogen receptor; assay: PROTAC activity at VHL/GFP-tagged ER-alpha in human A549 cells assessed as ERalpha degradation by Western blot analysis; type: cell-based
[22] = target: T1, von Hippel-Lindau disease tumor suppressor/Estrogen receptor; assay: PROTAC activity at VHL/ER-alpha in human MCF7 cells assessed as ERalpha degradation at 10 uM preincubated for 1 hr with MG132 followed by compound addition and measured after 6 hrs by Western blot analysis; type: cell-based
[23] = target: T1, von Hippel-Lindau disease tumor suppressor/Estrogen receptor; assay: PROTAC activity at VHL/ER-alpha in human MCF7 cells assessed as ERalpha degradation incubated for 6 hrs by Western blot analysis; type: cell-based; settings: dose 0.5-2 µM
[24] = target: T1, von Hippel-Lindau disease tumor suppressor/Estrogen receptor; assay: PROTAC activity at VHL/ER-alpha in human MCF7 cells assessed as ERalpha degradation at 10 uM incubated for 6 hrs by Western blot analysis; type: cell-based
[25] = target: T1, von Hippel-Lindau disease tumor suppressor/Estrogen receptor; assay: PROTAC activity at VHL/3 Flag-tagged ER-alpha in HBE cells assessed as ERalpha degradation incubated for 12 hrs by Western blot analysis; type: cell-based; settings: dose 0.5-10 µM

Activity [1]: 50%
DC50 [2]: 56 nM
Activity ([2]; dose 0.002-2 µM): Dose-Dependent Effect
SMILES: CC/C(=C(\c1ccccc1)c1ccc(OCC(=O)NCCOCCOCC(=O)N[C@H](C(=O)N2C[C@H](O)C[C@H]2C(=O)NCc2ccc(-c3scnc3C)cc2)C(C)(C)C)cc1)c1ccccc1

Activity [3]: Active
Activity [4]: 70%
Activity [6]: Active
Activity [8]: Tde
Stability [9]: Stable
Activity [10]: Dose-Dependent Effect
Activity [11]: 50%
Activity [12]: Dose-Dependent Effect
Stability [13]: Stable
Activity [14]: inactive
Activity [15]: inactive
Activity [16]: Tde
Activity [17]: Dose-Dependent Effect
Activity [18]: inactive
Activity [20]: inactive
Activity [21]: Active
Activity [22]: inactive
Activity [23]: Dose-Dependent Effect
Activity [24]: Active
Activity [25]: Dose-Dependent Effect
SMILES: CC/C(=C(\c1ccccc1)c1ccc(OCC(=O)NCCOCCOCC(=O)N[C@H](C(=O)N2C[C@H](OS(=O)(=O)c3ccccc3[N+](=O)[O-])C[C@H]2C(=O)NCc2ccc(-c3scnc3C)cc2)C(C)(C)C)cc1)c1ccccc1
inhibition (BT-474 [5]): Active
inhibition (BT-474 [7]): inactive
inhibition (BT-474 [19]): inactive
inhibition (MCF7): Active

DC50 [2]: 188 nM
SMILES: Cc1ncsc1-c1ccc(CNC(=O)[C@@H]2C[C@@H](O)CN2C(=O)[C@@H](NC(=O)COCCOCCNC(=O)COc2ccc(C(=O)c3c(-c4ccc(O)cc4)sc4cc(O)ccc34)cc2)C(C)(C)C)cc1

From ChEMBL document CHEMBL5390291, “Glutathione-responsive PROTAC for targeted degradation of ERα in breast cancer cells” (Bioorg Med Chem, 2023)
